Test results reported in patent US20230355606A1, “LONG-ACTING FORMULATIONS” (Janssen Pharmaceutica NV, priority 2020, published 2023).
Like-named read-outs stand apart in the source and are kept apart here.

Legend:
M. tuberculosis H37Rv = format: in vivo, Mycobacterium tuberculosis; settings: for reduction of mean CFU count compared to untreated mice: R10 (5/7); for Mean (SD) log10 M. tuberculosis CFU/lung: rifampin 10 mg/kg, 5/7, gavage, mice
[1] = tested on: mycobacterial ATP synthase versus eukaryotic mitochondrial ATP synthase; settings: cited from earlier work
M. tuberculosis = settings: mice; cited from earlier work
Mycobacterium leprae = settings: M. lepra, mice; cited from earlier work

CO[C@H]1/C=C/O[C@@]2(C)Oc3c(C)c(O)c4c(O)c(c(/C=N/N5CCN(C)CC5)c(O)c4c3C2=O)NC(=O)/C(C)=C\C=C\[C@H](C)[C@H](O)[C@@H](C)[C@@H](O)[C@@H](C)[C@H](OC(C)=O)[C@@H]1C [R, rifampin]
reduction of mean CFU count compared to untreated mice (M. tuberculosis H37Rv; after 4 weeks of treatment): approximately 1 log10 CFU/lung | reduction of mean CFU count compared to untreated mice (M. tuberculosis H37Rv; after 8 weeks of treatment): about 2 log10 CFU/lung | reduction of mean CFU count compared to untreated mice (M. tuberculosis H37Rv; after 12 weeks of treatment): ~3 log10 CFU/lung | Mean (SD) log10 M. tuberculosis CFU/lung (M. tuberculosis H37Rv; Week 4): 3.39 (0.46) log10 CFU/lung | Mean (SD) log10 M. tuberculosis CFU/lung (M. tuberculosis H37Rv; Week 8): 2.74 (0.62) log10 CFU/lung | Mean (SD) log10 M. tuberculosis CFU/lung (M. tuberculosis H37Rv; Week 12): 1.27 (0.85) log10 CFU/lung

COc1nc2ccc(Br)cc2cc1[C@@H](c1ccccc1)[C@@](O)(CCN(C)C)c1cccc2ccccc12 [bedaquiline]
selectivity index [1]: more than 20000 | minimal dose killing 99% of bacilli (M. tuberculosis): 30 mg/kg/wk | minimal dose killing 99% of bacilli (Mycobacterium leprae): < 5.0 mg/kg/wk
